Test results as given in ChEMBL document CHEMBL1201862, “PubChem BioAssay data set” (2004).
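1) Cells in 96-well plates. 2) Compound, 48 h, 5 concentrations. 3) Linear interpolation between surrounding doses. 4) Unreached endpoint = highest concentration. GI50: concentration for 50% inhibition of growth.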 Active and inactive are the calls of the source. Rule as the data show it: active = GI50 up to about 1.1 µM and inactive = higher.

Tests used:
Assay in all cases: NCI-60 cell line screen, 48 h
OVCAR-3 = tested on: OVCAR-3
DU-145 = tested on: DU-145
A549 = tested on: A549
PC-3 = tested on: PC-3
COLO 205 = tested on: COLO 205
Hs-578T = tested on: Hs-578T
K562 = tested on: K562
IGROV-1 = tested on: IGROV-1
UO-31 = tested on: UO-31
MDA-MB-435 = tested on: MDA-MB-435
NCI-H23 = tested on: NCI-H23
HT-29 = tested on: HT-29
A498 = tested on: A498
UACC-257 = tested on: UACC-257
NCI-H522 = tested on: NCI-H522
SNB-19 = tested on: SNB-19
NCI-H460 = tested on: NCI-H460
OVCAR-4 = tested on: OVCAR-4
HCC 2998 = tested on: HCC 2998

Measured: GI50

COC(=O)c1cnn2c1n[n+]([O-])c1ccccc12
inactive: OVCAR-3 25.9 µM | DU-145 > 100 µM | A549 > 100 µM | PC-3 > 100 µM | COLO 205 85.5 µM | Hs-578T > 100 µM | K562 > 100 µM | IGROV-1 > 100 µM | UO-31 37.4 µM | MDA-MB-435 > 100 µM | NCI-H23 57 µM | HT-29 > 100 µM | A498 30.3 µM | UACC-257 > 100 µM | NCI-H522 > 100 µM

COc1cccc(NC(=O)CC(=O)NN)c1
inactive: OVCAR-3 > 100 µM | DU-145 > 100 µM | SNB-19 > 100 µM | NCI-H460 > 100 µM | A549 > 100 µM | PC-3 > 100 µM | COLO 205 > 100 µM | Hs-578T > 100 µM | OVCAR-4 > 100 µM | K562 > 100 µM | IGROV-1 > 100 µM | UO-31 > 100 µM | MDA-MB-435 > 100 µM | NCI-H23 > 100 µM | HT-29 > 100 µM | A498 > 100 µM | UACC-257 > 100 µM | NCI-H522 > 100 µM

COC(=O)[C@H]1ON2O[C@H](OC3CCCC[C@@H]3c3ccccc3)C[C@@H]3CC[C@H]1[C@@]32C (stereo partly specified)
inactive: DU-145 > 100 µM | SNB-19 > 100 µM | NCI-H460 > 100 µM | A549 60.3 µM | PC-3 47.6 µM | COLO 205 91.4 µM | Hs-578T > 100 µM | OVCAR-4 > 100 µM | K562 > 100 µM | IGROV-1 > 100 µM | UO-31 97.3 µM | MDA-MB-435 > 100 µM | NCI-H23 > 100 µM | HT-29 51.8 µM | A498 > 100 µM | HCC 2998 > 100 µM | UACC-257 > 100 µM | NCI-H522 45.9 µM

Cc1c2c(n(C)c1C)C(=O)C1C(C2=O)C2(C)c3ccccc3C1(C)c1ccccc12 (stereo unspecified)
inactive: OVCAR-3 > 100 µM | DU-145 > 100 µM | SNB-19 > 100 µM | NCI-H460 > 100 µM | PC-3 > 100 µM | COLO 205 > 100 µM | Hs-578T > 100 µM | K562 > 100 µM | IGROV-1 > 100 µM | UO-31 > 100 µM | MDA-MB-435 > 100 µM | NCI-H23 > 100 µM | HT-29 > 100 µM | A498 > 100 µM | UACC-257 > 100 µM

NC1CC2NC3CCCCC3NC2CC1N (stereo unspecified)
inactive: OVCAR-3 40.8 µM | DU-145 50.2 µM | SNB-19 36.2 µM | NCI-H460 29 µM | A549 58.3 µM | PC-3 50.9 µM | COLO 205 42.5 µM | Hs-578T 27.9 µM | K562 31.8 µM | IGROV-1 55.2 µM | UO-31 27 µM | MDA-MB-435 36.1 µM | NCI-H23 32.4 µM | HT-29 27.4 µM | A498 26.8 µM | HCC 2998 62.5 µM | UACC-257 37.9 µM | NCI-H522 12.6 µM

O=C(O)c1ccc(/C=N/N=C2c3ccccc3-c3ccccc32)cc1
inactive: OVCAR-3 19.6 µM | DU-145 > 100 µM | SNB-19 48 µM | NCI-H460 41.2 µM | A549 74 µM | PC-3 35 µM | COLO 205 57.8 µM | Hs-578T 13.7 µM | OVCAR-4 35.8 µM | K562 55.8 µM | IGROV-1 54.8 µM | UO-31 42 µM | MDA-MB-435 73.5 µM | NCI-H23 53.8 µM | HT-29 54.3 µM | A498 > 100 µM | UACC-257 67.5 µM | NCI-H522 60.7 µM

CNC(=O)CCCNC(=O)CCCC(=O)N(C)C
inactive: OVCAR-3 > 100 µM | DU-145 > 100 µM | SNB-19 > 100 µM | NCI-H460 > 100 µM | A549 > 100 µM | PC-3 > 100 µM | COLO 205 > 100 µM | Hs-578T > 100 µM | K562 > 100 µM | IGROV-1 > 100 µM | UO-31 > 100 µM | MDA-MB-435 > 100 µM | NCI-H23 > 100 µM | HT-29 > 100 µM | A498 > 100 µM | HCC 2998 > 100 µM | UACC-257 > 100 µM | NCI-H522 > 100 µM

O=C(O)C#Cc1ccc([N+](=O)[O-])cc1
inactive: OVCAR-3 > 100 µM | DU-145 > 100 µM | SNB-19 > 100 µM | NCI-H460 > 100 µM | A549 > 100 µM | PC-3 > 100 µM | COLO 205 > 100 µM | Hs-578T > 100 µM | OVCAR-4 > 100 µM | K562 > 100 µM | IGROV-1 > 100 µM | UO-31 > 100 µM | MDA-MB-435 > 100 µM | NCI-H23 > 100 µM | HT-29 > 100 µM | A498 > 100 µM | HCC 2998 > 100 µM | UACC-257 > 100 µM

N=C(N)N/N=C/c1c(-c2ccc(N)cc2)nc2sccn12
inactive: OVCAR-3 21.8 µM | DU-145 17.5 µM | SNB-19 23.2 µM | NCI-H460 26.4 µM | A549 21.2 µM | PC-3 22.5 µM | COLO 205 23.4 µM | Hs-578T 31.3 µM | OVCAR-4 35.3 µM | K562 26.1 µM | IGROV-1 60.8 µM | UO-31 20 µM | MDA-MB-435 26.5 µM | NCI-H23 28.1 µM | HT-29 22.7 µM | A498 25.9 µM | UACC-257 > 100 µM | NCI-H522 26.5 µM

CO[C@@H]1C=C[C@@]23c4cc5c(cc4C(O)N(CC2O)C3C1)OCO5 (stereo partly specified)
inactive: OVCAR-3 4.86 µM | DU-145 3.81 µM | SNB-19 3.3 µM | NCI-H460 2.84 µM | A549 3.35 µM | PC-3 3.56 µM | COLO 205 2.94 µM | Hs-578T 22.6 µM | OVCAR-4 2.8 µM | K562 3.48 µM | IGROV-1 3.78 µM | UO-31 3.68 µM | MDA-MB-435 3.06 µM | NCI-H23 4.29 µM | HT-29 3 µM | A498 3.15 µM | UACC-257 1.86 µM | NCI-H522 3.66 µM

Cc1[nH]c(-c2ccccc2)c2nc(N(C)C)oc(=O)c12
inactive: DU-145 > 100 µM | SNB-19 > 100 µM | NCI-H460 > 100 µM | A549 > 100 µM | PC-3 > 100 µM | COLO 205 > 100 µM | Hs-578T > 100 µM | OVCAR-4 > 100 µM | K562 > 100 µM | IGROV-1 > 100 µM | UO-31 > 100 µM | MDA-MB-435 > 100 µM | NCI-H23 > 100 µM | HT-29 > 100 µM | A498 > 100 µM | HCC 2998 > 100 µM | UACC-257 > 100 µM | NCI-H522 > 100 µM

CN(C)CCNc1ccccn1
inactive: OVCAR-3 > 100 µM | DU-145 > 100 µM | SNB-19 > 100 µM | NCI-H460 > 100 µM | A549 > 100 µM | PC-3 > 100 µM | Hs-578T > 100 µM | OVCAR-4 > 100 µM | K562 > 100 µM | IGROV-1 > 100 µM | UO-31 > 100 µM | MDA-MB-435 > 100 µM | NCI-H23 > 100 µM | HT-29 > 100 µM | A498 > 100 µM | HCC 2998 > 100 µM | UACC-257 > 100 µM | NCI-H522 > 100 µM

O=S1(=O)OCCOS(=O)(=O)C1Cc1cccc2ccccc12
inactive: DU-145 12 µM | SNB-19 25 µM | NCI-H460 17 µM | A549 35.2 µM | PC-3 33.2 µM | COLO 205 13.9 µM | Hs-578T 29.9 µM | OVCAR-4 19.8 µM | K562 15.6 µM | IGROV-1 13.9 µM | UO-31 23.2 µM | MDA-MB-435 16.2 µM | NCI-H23 29.9 µM | HT-29 25.5 µM | A498 14.1 µM | HCC 2998 20.1 µM | UACC-257 14.1 µM | NCI-H522 18.9 µM

CC(=O)c1ccc2c(c1)oc(=O)n2CCN1CCCCC1
inactive: OVCAR-3 > 100 µM | DU-145 > 100 µM | SNB-19 > 100 µM | NCI-H460 > 100 µM | PC-3 > 100 µM | COLO 205 > 100 µM | Hs-578T 93.5 µM | K562 > 100 µM | IGROV-1 > 100 µM | MDA-MB-435 > 100 µM | NCI-H23 > 100 µM | HT-29 > 100 µM | A498 > 100 µM | UACC-257 > 100 µM

CC(C)=NNC1=NC(C)(C)P(=O)(NNc2ncccn2)S1 (stereo unspecified)
inactive: OVCAR-3 > 100 µM | DU-145 > 100 µM | SNB-19 > 100 µM | NCI-H460 > 100 µM | A549 > 100 µM | PC-3 > 100 µM | Hs-578T > 100 µM | OVCAR-4 > 100 µM | K562 > 100 µM | IGROV-1 > 100 µM | UO-31 > 100 µM | MDA-MB-435 > 100 µM | NCI-H23 > 100 µM | HT-29 > 100 µM | A498 > 100 µM | HCC 2998 > 100 µM | UACC-257 > 100 µM | NCI-H522 > 100 µM

O=C1C2=C(SCCS2)C(=O)c2c(Sc3ccc(Cl)cc3)c(Sc3ccc(Cl)cc3)c(Sc3ccc(Cl)cc3)c(Sc3ccc(Cl)cc3)c21
inactive: OVCAR-3 > 100 µM | DU-145 > 100 µM | SNB-19 25.2 µM | NCI-H460 > 100 µM | A549 > 100 µM | PC-3 > 100 µM | COLO 205 > 100 µM | Hs-578T 8.49 µM | OVCAR-4 > 100 µM | IGROV-1 99.1 µM | UO-31 > 100 µM | MDA-MB-435 > 100 µM | NCI-H23 74.3 µM | A498 29.2 µM | HCC 2998 > 100 µM | UACC-257 > 100 µM
